Measured values reported in patent publication US7459277B2, “Mammalian T1R3 sweet taste receptors” (The Regents of the University of California, priority 2003, dated 2008).

Key:
[1] = molecular target: T1, human T1R2 and mouse T1R3 GPCRs (UniProt Q8TE23+Q925D8); experiment: HEK cells transfected with human T1R2 and mouse T1R3; type: cell-based
T1 construct: expressed in transfected cells; host or cells: HEK cells
T1 sequence (Q8TE23 20-839): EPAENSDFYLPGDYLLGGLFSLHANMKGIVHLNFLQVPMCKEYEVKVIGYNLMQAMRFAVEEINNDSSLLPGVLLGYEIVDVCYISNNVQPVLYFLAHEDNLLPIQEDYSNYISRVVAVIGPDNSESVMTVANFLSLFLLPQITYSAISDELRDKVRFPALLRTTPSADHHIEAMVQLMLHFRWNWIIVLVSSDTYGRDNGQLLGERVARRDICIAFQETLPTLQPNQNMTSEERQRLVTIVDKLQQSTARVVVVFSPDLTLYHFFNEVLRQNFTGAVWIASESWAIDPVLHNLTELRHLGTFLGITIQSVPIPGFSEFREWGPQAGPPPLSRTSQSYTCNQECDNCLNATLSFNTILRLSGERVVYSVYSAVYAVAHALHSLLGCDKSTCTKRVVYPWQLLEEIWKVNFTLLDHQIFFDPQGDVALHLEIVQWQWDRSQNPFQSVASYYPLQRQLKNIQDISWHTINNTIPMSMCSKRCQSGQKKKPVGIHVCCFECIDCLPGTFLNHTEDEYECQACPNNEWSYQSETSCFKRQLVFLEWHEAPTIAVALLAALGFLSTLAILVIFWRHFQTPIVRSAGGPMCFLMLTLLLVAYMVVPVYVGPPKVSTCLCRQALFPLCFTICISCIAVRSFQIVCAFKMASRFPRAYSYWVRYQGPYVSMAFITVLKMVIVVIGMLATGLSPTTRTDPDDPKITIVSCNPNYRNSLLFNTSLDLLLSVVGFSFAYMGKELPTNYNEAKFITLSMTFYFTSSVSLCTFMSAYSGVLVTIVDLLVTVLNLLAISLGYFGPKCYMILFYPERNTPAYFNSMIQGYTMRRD
T1 sequence (Q925D8 21-858): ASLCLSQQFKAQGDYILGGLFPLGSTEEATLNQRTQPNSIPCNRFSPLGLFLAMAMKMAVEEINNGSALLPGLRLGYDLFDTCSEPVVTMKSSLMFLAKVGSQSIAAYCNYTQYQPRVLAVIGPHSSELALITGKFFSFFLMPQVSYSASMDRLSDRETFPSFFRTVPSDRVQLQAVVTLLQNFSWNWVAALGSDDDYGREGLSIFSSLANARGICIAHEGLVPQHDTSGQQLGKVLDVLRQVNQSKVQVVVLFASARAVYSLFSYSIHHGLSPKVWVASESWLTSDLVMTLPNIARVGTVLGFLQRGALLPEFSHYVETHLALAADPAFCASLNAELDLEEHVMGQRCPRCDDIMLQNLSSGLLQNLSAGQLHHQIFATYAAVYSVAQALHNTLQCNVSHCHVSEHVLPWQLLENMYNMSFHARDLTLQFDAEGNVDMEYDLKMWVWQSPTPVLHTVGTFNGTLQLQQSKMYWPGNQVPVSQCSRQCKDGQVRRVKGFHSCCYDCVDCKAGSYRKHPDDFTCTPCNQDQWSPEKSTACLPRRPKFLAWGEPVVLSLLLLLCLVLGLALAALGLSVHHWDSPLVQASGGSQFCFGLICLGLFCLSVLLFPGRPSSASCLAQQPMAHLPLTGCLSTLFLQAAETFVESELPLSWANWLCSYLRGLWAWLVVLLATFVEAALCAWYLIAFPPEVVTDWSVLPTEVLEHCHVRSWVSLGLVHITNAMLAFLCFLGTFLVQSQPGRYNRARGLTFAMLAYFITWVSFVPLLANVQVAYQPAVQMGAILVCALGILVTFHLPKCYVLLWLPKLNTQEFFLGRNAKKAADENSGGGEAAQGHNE
Experimental: (§1) We generated mice that were homozygous for the T1R2 KO allele, but instead expressed a human T1R2 transgene in the native “T1R2-cells”. A 12 kb genomic clone containing the T1R2 regulatory sequences was fused to a hT1R2 full length cDNA and introduced into T1R2 KO mice. Multiple independent lines were assayed for their selectivity and sensitivity to sweet tastants. To examine expression of hT1R2, we performed two-color fluorescent in situ hybridization experiments in transgenic animals carrying the wild type mT1R2 allele. […] Taken together, these experiments validate T1Rs as key determinants of differences in sweet taste selectivity and specificity between rodents and humans, and further substantiate T1R2+3, and T1R2-expressing cells, as an principal mediator of sweet taste in vivo. Finally, we propose that polymorphisms in both T1R2 and T1R3 are important determinants of human individual sweet taste preferences.
(§2) Modified HEK-293 cells (PEAK^rapid cells; Edge BioSystems, Md.) were grown, transfected with T1Rs and promiscuous G-proteins and assayed for functional responses to tastants by Ca-imaging essentially as described previously (Nelson, G. et al., Cell, 106, 381-390 (2001)). […] Acquisition and analysis of fluorescence images used TILL-Vision software.

[2] = molecular target: T2, human T1R2 and human T1R3 (Homo sapiens, UniProt Q7RTX0+Q8TE23); experiment: Cells transfected with human T1R2 and human T1R3; type: cell-based
T2 construct: expressed in transfected cells; host or cells: cells (HEK inferred from the preceding sentence and b309)
T2 sequence (Q8TE23 20-839): T1 sequence (Q8TE23 20-839)
T2 sequence (Q7RTX0 21-852): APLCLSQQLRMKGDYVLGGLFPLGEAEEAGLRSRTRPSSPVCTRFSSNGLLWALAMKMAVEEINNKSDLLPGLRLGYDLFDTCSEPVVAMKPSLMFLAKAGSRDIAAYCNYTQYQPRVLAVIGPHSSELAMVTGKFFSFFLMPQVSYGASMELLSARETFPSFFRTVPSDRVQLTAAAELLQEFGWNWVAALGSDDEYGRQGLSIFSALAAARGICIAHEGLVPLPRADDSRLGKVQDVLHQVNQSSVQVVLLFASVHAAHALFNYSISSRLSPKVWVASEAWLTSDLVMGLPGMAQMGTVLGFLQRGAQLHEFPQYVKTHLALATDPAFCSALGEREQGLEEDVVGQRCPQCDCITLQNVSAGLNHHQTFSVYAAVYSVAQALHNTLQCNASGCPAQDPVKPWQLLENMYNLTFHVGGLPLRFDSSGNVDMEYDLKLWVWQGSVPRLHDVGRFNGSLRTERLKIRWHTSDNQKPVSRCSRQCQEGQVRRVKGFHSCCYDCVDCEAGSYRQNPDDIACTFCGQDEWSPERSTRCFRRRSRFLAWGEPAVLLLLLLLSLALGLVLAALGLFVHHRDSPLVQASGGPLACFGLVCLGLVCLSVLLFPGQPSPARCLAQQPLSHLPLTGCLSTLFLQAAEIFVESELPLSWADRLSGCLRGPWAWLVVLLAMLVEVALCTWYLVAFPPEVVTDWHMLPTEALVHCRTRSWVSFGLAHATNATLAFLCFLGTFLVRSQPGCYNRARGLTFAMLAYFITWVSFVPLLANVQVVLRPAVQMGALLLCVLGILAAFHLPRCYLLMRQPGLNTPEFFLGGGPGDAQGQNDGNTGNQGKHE
Experimental: as §1, §2

[3] = system: T1R2 KO mice expressing a human T1R2 gene; experiment: Behavioral taste responses of mice expressing a human T1R2 transgene; type: in vivo, mouse; details: humanized T1R2 mice (T1R2 KO + hT1R2 transgene); monellin ~10 uM, thaumatin ~5 uM, aspartame 10 mM, glycyrrhizic acid 500 uM, neohesperidin dihydrochalcone 400 uM
humans = details: sub-millimolar concentrations; cited from earlier work
rodents = details: 100 times higher concentrations than sweet to humans; cited from earlier work

COc1ccc(CCC(=O)c2c(O)cc(O[C@@H]3O[C@H](CO)[C@@H](O)[C@H](O)[C@H]3O[C@@H]3O[C@@H](C)[C@H](O)[C@@H](O)[C@H]3O)cc2O)cc1O [neohesperidin dihydrochalcone]
cell response [1]: do not respond
cell response [2]: robustly respond
behavioral response to human sweet tastants [3]: still do not respond
sweet taste to humans (humans): taste sweet
preference in rodents (rodents): no preference
